Assay results as given in ChEMBL document CHEMBL6114965, “Novel dual-targeting PROTAC degraders of GSK-3β and CDK5: A promising approach for pancreatic cancer treatment” (Bioorg Med Chem, 2025).
Active and inactive are the calls of the source. The rule behind the calls is not given here.

Tests used:
[1] = Cytotoxicity against human A549 cells; type: toxicity, cell-based
[2] = Cytotoxicity against human HepG2 cells; type: toxicity, cell-based
[3] = Metabolic stability in pooled human liver microsomes assessed as half-life at 100 uM measured upto 120 mins by LC-MS/MS analysis; type: ADME, Microsome
Cytochrome P450 2B6 = target: T1, Cytochrome P450 2B6 (Homo sapiens, UniProt P20813); assay: Inhibition of CYP2B6 (unknown origin) using bupropion as substrate […]; type: ADME
T1 sequence (P20813 whole entry): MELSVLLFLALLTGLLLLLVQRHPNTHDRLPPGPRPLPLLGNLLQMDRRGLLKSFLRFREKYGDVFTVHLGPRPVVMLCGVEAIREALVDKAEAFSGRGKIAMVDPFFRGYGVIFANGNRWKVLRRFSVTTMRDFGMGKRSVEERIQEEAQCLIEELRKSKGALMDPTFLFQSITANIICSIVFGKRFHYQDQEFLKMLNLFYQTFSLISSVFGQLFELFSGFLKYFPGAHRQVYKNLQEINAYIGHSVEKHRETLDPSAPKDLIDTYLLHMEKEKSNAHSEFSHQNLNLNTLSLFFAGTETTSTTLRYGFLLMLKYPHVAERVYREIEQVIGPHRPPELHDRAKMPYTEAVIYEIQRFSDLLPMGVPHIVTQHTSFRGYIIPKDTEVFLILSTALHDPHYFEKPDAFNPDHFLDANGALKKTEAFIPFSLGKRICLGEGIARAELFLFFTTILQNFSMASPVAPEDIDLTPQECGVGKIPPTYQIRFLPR

[4] = target: T2, Protein cereblon/Glycogen synthase kinase-3 beta (Homo sapiens, UniProt P49841+Q96SW2); assay: PROTAC activity at CRBN/GSK3beta in human PANC-1 cells assessed as induction of GSK3beta degradation at 0.5 to 2.8 uM incubated for 10 hrs in presence of MG132 by Western blot analysis; type: cell-based; conditions: dose 0.5-2.8 µM
Target sequence in this assay (P49841 whole entry, looked up): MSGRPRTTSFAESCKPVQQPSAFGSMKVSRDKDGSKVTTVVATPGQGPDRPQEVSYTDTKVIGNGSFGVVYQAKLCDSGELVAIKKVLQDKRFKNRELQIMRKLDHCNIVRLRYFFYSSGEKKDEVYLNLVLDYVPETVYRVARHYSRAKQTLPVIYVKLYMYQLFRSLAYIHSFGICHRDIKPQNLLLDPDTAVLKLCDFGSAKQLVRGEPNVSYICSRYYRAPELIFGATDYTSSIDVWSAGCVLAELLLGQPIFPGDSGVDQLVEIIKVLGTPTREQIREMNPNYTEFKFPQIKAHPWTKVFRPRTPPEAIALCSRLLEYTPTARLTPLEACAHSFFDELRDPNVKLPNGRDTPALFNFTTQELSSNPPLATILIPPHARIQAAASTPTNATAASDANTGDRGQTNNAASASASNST
Target sequence in this assay (Q96SW2 whole entry, looked up): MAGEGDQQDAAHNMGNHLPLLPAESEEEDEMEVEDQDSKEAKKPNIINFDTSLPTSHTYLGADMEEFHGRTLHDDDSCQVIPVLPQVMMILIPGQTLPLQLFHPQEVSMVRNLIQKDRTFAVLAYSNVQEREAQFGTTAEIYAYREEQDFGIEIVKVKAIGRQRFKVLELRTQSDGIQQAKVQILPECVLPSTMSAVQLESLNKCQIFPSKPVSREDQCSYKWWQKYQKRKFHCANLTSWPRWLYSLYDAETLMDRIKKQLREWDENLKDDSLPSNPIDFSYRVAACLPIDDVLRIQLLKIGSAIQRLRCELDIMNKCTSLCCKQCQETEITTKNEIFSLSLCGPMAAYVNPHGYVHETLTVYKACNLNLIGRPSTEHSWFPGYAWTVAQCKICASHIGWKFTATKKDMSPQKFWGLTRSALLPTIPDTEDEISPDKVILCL

BXPC-3 = assay: Antiproliferative activity against human BXPC-3 cells assessed as inhibition of cell viability by MTT assay; type: functional, cell-based
MIA PaCa-2 = assay: Antiproliferative activity against human MIA PaCa-2 cells assessed as inhibition of cell viability by MTT assay; type: functional, cell-based
[5] = Permeability of compound in PBS at pH 7.4 at 500 uM incubated for 4 hrs by UV spectrophotometry based PAMPA; type: ADME; conditions: read-out: permeability
ASPC1 = assay: Antiproliferative activity against human ASPC1 cells assessed as inhibition of cell viability by MTT assay; type: functional, cell-based
PANC-1 = assay: Antiproliferative activity against human PANC-1 cells assessed as inhibition of cell viability by MTT assay; type: functional, cell-based
[6] = target: T2, Protein cereblon/Glycogen synthase kinase-3 beta; assay: PROTAC activity at CRBN/GSK3beta in human PANC-1 cells assessed as induction of GSK3beta degradation by target engagement binding based cell-ELISA
Target sequence in this assay (P49841 whole entry): as the sequence (P49841 whole entry, looked up) above
Target sequence in this assay (Q96SW2 whole entry): as the sequence (Q96SW2 whole entry, looked up) above

[7] = target: T2, Protein cereblon/Glycogen synthase kinase-3 beta; assay: PROTAC activity at CRBN/GSK3beta in human PANC-1 cells assessed as induction of GSK3beta degradation at 1 to 2.8 uM incubated for 10 hrs by Western blot analysis; type: cell-based; conditions: dose 1-2.8 µM
Target sequence in this assay (P49841 whole entry, looked up): as the sequence (P49841 whole entry, looked up) above
Target sequence in this assay (Q96SW2 whole entry, looked up): as the sequence (Q96SW2 whole entry, looked up) above

[8] = target: T3, Protein cereblon/Cyclin-dependent kinase 5 (Homo sapiens, UniProt Q00535+Q96SW2); assay: PROTAC activity at CRBN/CDK5 in human PANC-1 cells assessed as induction of CDK5 degradation by target engagement binding based cell-ELISA
Target sequence in this assay (Q00535 whole entry): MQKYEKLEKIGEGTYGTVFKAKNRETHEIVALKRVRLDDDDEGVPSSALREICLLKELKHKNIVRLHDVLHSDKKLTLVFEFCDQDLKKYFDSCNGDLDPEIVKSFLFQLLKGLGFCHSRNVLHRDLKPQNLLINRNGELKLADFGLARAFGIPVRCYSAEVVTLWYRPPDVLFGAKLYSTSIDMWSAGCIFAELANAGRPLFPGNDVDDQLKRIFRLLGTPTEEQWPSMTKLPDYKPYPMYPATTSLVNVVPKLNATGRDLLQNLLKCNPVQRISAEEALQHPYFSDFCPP
Target sequence in this assay (Q96SW2 whole entry): as the sequence (Q96SW2 whole entry, looked up) above

[9] = target: T2, Protein cereblon/Glycogen synthase kinase-3 beta; assay: PROTAC activity at CRBN/GSK3beta in human PANC-1 cells assessed as induction of GSK3beta degradation by measuring maximal efficacy by target engagement binding based cell-ELISA relative to control
Target sequence in this assay (P49841 whole entry, looked up): as the sequence (P49841 whole entry, looked up) above
Target sequence in this assay (Q96SW2 whole entry, looked up): as the sequence (Q96SW2 whole entry, looked up) above

[10] = target: T3, Protein cereblon/Cyclin-dependent kinase 5; assay: PROTAC activity at CRBN/CDK5 in human PANC-1 cells assessed as induction of CDK5 degradation at 1 to 2.8 uM incubated for 10 hrs by Western blot analysis; type: cell-based; conditions: dose 1-2.8 µM
Target sequence in this assay (Q00535 whole entry, looked up): as the sequence (Q00535 whole entry) above
Target sequence in this assay (Q96SW2 whole entry, looked up): as the sequence (Q96SW2 whole entry, looked up) above

[11] = target: T3, Protein cereblon/Cyclin-dependent kinase 5; assay: PROTAC activity at CRBN/CDK5 in human PANC-1 cells assessed as induction of CDK5 degradation at 0.5 to 2.8 uM incubated for 10 hrs in presence of MG132 by Western blot analysis; type: cell-based; conditions: dose 0.5-2.8 µM
Target sequence in this assay (Q00535 whole entry, looked up): as the sequence (Q00535 whole entry) above
Target sequence in this assay (Q96SW2 whole entry, looked up): as the sequence (Q96SW2 whole entry, looked up) above

[12] = target: T3, Protein cereblon/Cyclin-dependent kinase 5; assay: PROTAC activity at CRBN/CDK5 in human PANC-1 cells assessed as induction of CDK5 degradation by measuring maximal efficacy by target engagement binding based cell-ELISA relative to control
Target sequence in this assay (Q00535 whole entry, looked up): as the sequence (Q00535 whole entry) above
Target sequence in this assay (Q96SW2 whole entry, looked up): as the sequence (Q96SW2 whole entry, looked up) above

[13] = Bioavailability in mouse at 5 mg/kg, […]; type: ADME, organism-based; conditions: in vivo
[14] = Observed clearance in mouse at 5 mg/kg, po; type: ADME, organism-based; conditions: in vivo
[15] = AUC in mouse at 5 mg/kg, po; type: ADME, organism-based; conditions: in vivo
[16] = Half-life in mouse at 5 mg/kg, iv; type: ADME, organism-based; conditions: in vivo
Cytochrome P450 2C19 = Cytochrome P450 2C19 (Homo sapiens, UniProt P33261); assay: Inhibition of CYP2C19 (unknown origin) using s-mephenytoin as substrate […]; type: ADME
Sequence of Cytochrome P450 2C19 (P33261 whole entry): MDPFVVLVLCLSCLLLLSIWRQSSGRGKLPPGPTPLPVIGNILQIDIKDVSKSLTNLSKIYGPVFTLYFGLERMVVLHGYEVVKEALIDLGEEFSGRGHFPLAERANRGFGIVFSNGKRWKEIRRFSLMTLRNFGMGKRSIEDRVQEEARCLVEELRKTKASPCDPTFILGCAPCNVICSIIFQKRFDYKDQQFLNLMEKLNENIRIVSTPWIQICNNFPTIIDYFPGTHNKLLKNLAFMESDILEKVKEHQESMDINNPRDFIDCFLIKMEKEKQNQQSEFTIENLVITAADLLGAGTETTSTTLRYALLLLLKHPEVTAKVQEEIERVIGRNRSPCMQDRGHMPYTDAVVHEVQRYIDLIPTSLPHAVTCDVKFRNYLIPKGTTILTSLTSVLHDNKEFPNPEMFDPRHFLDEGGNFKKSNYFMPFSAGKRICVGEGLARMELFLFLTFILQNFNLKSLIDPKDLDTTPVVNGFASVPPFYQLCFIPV

Cytochrome P450 2C9 = Cytochrome P450 2C9 (Homo sapiens, UniProt P11712); assay: Inhibition of CYP2C9 (unknown origin) using diclofenac as substrate […]; type: ADME
Sequence of Cytochrome P450 2C9 (P11712 whole entry): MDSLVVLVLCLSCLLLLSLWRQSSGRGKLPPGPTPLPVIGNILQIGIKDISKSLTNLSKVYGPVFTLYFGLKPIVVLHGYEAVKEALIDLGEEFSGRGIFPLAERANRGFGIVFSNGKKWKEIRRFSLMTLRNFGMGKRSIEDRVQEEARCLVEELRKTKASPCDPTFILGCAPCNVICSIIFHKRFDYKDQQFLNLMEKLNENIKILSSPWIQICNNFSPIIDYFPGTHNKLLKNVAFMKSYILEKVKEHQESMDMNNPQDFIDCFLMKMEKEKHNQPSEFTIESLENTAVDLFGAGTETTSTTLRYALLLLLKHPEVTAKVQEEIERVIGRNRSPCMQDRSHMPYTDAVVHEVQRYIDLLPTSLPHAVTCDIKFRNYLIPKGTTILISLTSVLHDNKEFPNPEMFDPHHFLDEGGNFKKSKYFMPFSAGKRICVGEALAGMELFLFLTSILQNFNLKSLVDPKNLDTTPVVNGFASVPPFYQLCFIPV

[17] = Oral bioavailability in mouse at 5 mg/kg; type: ADME, organism-based; conditions: in vivo
[18] = Cmax in mouse at 5 mg/kg, iv; type: ADME, organism-based; conditions: in vivo
[19] = Cmax in mouse at 5 mg/kg, po; type: ADME, organism-based; conditions: in vivo
Cytochrome P450 2C8 = target: T4, Cytochrome P450 2C8 (Homo sapiens, UniProt P10632); assay: Inhibition of CYP2C8 (unknown origin) using amodiaquine as substrate […]; type: ADME
T4 sequence (P10632 whole entry): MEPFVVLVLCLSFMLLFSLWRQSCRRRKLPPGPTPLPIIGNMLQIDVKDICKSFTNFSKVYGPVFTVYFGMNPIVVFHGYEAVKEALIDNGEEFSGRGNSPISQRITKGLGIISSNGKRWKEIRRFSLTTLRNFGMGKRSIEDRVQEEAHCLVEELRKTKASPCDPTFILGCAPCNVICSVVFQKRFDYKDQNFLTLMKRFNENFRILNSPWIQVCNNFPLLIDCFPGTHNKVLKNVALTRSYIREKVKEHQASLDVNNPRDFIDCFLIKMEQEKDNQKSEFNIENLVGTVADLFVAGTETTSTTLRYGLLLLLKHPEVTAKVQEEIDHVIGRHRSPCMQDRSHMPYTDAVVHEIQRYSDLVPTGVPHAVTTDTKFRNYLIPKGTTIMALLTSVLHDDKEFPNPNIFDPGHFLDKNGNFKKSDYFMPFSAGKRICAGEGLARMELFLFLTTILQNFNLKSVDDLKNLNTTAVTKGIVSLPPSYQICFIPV

Cytochrome P450 2D6 = Cytochrome P450 2D6 (Homo sapiens, UniProt P10635); assay: Inhibition of CYP2D6 (unknown origin) using dextromethorphan as substrate […]; type: ADME
Sequence of Cytochrome P450 2D6 (P10635 whole entry): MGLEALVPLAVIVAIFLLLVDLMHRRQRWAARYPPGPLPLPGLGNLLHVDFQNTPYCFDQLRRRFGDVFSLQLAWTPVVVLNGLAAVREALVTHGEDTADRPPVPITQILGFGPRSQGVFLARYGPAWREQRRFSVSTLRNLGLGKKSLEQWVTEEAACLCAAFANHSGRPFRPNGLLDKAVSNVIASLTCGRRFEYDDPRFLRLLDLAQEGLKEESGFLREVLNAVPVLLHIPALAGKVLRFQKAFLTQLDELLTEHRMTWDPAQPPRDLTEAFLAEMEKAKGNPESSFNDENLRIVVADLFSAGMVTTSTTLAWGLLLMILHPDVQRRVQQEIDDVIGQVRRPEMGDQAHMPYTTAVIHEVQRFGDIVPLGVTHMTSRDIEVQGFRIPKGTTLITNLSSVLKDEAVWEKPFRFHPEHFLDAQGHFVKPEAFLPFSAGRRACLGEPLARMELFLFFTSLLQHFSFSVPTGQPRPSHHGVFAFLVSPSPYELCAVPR

Cytochrome P450 3A4 [20] = target: T5, Cytochrome P450 3A4 (Homo sapiens, UniProt P08684); assay: Inhibition of CYP3A4 (unknown origin) using midazolam as substrate […]; type: ADME
T5 sequence (P08684 whole entry): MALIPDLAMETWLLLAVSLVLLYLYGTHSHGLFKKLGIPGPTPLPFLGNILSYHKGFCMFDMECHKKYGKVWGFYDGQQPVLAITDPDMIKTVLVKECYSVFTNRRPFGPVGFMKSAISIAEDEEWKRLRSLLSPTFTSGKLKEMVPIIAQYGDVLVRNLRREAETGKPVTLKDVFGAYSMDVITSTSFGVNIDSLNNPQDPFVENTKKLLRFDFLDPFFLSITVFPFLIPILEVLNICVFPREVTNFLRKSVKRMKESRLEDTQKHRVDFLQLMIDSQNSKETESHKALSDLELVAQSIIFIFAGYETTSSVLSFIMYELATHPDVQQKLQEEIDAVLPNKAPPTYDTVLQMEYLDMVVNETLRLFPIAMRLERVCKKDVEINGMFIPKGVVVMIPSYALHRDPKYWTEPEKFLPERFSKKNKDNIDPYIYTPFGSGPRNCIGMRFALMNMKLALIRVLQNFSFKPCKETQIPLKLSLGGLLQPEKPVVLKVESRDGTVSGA

[21] = AUC in mouse at 5 mg/kg, iv; type: ADME, organism-based; conditions: in vivo
Cytochrome P450 3A4 [22] = target: T5, Cytochrome P450 3A4; assay: Inhibition of CYP3A4 (unknown origin) using testosterone as substrate […]; type: ADME
[23] = Tmax in mouse at 5 mg/kg, po; type: ADME, organism-based; conditions: in vivo
[24] = Half-life in mouse at 5 mg/kg, po; type: ADME, organism-based; conditions: in vivo
Cytochrome P450 1A2 = target: T6, Cytochrome P450 1A2 (Homo sapiens, UniProt P05177); assay: Inhibition of CYP1A2 (unknown origin) using phenacetin as substrate […]; type: ADME
T6 sequence (P05177 whole entry): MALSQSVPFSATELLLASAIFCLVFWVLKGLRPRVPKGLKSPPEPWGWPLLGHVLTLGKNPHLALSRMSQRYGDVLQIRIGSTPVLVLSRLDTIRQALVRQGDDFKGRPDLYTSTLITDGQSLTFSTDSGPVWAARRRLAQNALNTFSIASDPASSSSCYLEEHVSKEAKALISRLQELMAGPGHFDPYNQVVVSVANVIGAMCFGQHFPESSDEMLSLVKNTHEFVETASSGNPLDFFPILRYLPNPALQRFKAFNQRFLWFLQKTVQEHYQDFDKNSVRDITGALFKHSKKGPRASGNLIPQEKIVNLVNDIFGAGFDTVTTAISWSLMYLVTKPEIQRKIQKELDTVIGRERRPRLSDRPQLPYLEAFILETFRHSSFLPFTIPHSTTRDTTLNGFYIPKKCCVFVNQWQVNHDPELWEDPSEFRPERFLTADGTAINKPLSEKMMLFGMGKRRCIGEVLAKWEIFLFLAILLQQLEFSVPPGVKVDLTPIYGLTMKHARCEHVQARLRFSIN

[25] = Tmax in mouse at 5 mg/kg, iv; type: ADME, organism-based; conditions: in vivo
[26] = target: Protein cereblon/Cyclin-dependent kinase 2 (Homo sapiens, UniProt P24941+Q96SW2); assay: PROTAC activity at CRBN/CDK2 (unknown origin) assessed as induction of CDK2 degradation; type: protein assay

SMILES | CC50 [1] [µM] | CC50 [2] [µM] | half-life at 100 µM [3] [min] | IC50 (Cytochrome P450 2B6) [µM] | Activity [4] | IC50 (BXPC-3) [nM] | IC50 (MIA PaCa-2) [nM] | Papp at 4 h, 500 µM [5] [×10⁻⁶ cm/s] | IC50 (ASPC1) [nM] | IC50 (PANC-1) [nM] | DC50 [6] [nM] | Activity [7] | DC50 [8] [nM] | Emax [9] [%] | Activity [10] | Activity [11] | Emax [12] [%] | other results
CC(=O)c1c(C)c2cnc(Nc3ccc(N4CCNCC4)cn3)nc2n(C2CCCC2)c1=O [PALBOCICLIB] | 7.95 | 8.12 | 57 | – | – | – | – | – | – | – | – | – | – | – | – | – | – | –
CN[C@H]1CC[C@@H](c2ccc(Cl)c(Cl)c2)c2ccccc21 [SERTRALINE] | – | – | – | 12.5 | – | – | – | – | – | – | – | – | – | – | – | – | – | –
O=C1CCC(N2C(=O)c3ccc(N4CCN(CCOCCC(=O)N5CCC(NC(=O)c6c[nH]nc6NC(=O)c6c(Cl)cccc6Cl)CC5)CC4)cc3C2=O)C(=O)N1 (stereo unspecified) | – | – | – | – | inactive | 2210 | 2190 | 38.6 | 2250 | 1950 | 98 | Active | 32 | 89 | Active | inactive | 90 | –
O=C1CCC(N2C(=O)c3cccc(NCCCCCn4cc(CN5CCN(CCCn6cc(C7=C(c8c[nH]c9ccccc89)C(=O)NC7=O)c7ccccc76)CC5)nn4)c3C2=O)C(=O)N1 (stereo unspecified) | 8.23 | 9.05 | 56 | 45.3 | inactive | 2950 | 2160 | 79.9 | 1960 | 1810 | 42 | Active | 48 | 90 | Active | inactive | 88 | bioavailability [13]: 35%; CL/F [14]: 90 mL/min/kg; AUC [15]: 1550 ng·h/mL; half-life [16]: 360 min; IC50 (Cytochrome P450 2C19): 46.2 µM; IC50 (Cytochrome P450 2C9): 33.3 µM; F [17]: 15%; Cmax [18]: 961 ng/mL; Cmax [19]: 761 ng/mL; IC50 (Cytochrome P450 2C8): > 100 µM; IC50 (Cytochrome P450 2D6): 45.5 µM; IC50 (Cytochrome P450 3A4 [20]): 39.2 µM; AUC [21]: 3700 ng·h/mL; IC50 (Cytochrome P450 3A4 [22]): 25.3 µM; Tmax [23]: 2 h; half-life [24]: 240 min; IC50 (Cytochrome P450 1A2): 55.2 µM; Tmax [25]: 4 h
O=C1CCC(N2C(=O)c3ccc(N4CCN(CCOCCC(=O)N5CCN(CCCn6cc(C7=C(c8c[nH]c9ccccc89)C(=O)NC7=O)c7ccccc76)CC5)CC4)cc3C2=O)C(=O)N1 (stereo unspecified) | – | – | – | – | inactive | 2870 | 2430 | 69.2 | 3870 | 2500 | 56 | Active | 52 | 88 | Active | inactive | 89 | –
Cc1cscc1C(=O)n1nc(Nc2ccc(S(=O)(=O)NCCOCc3cn(CCOCCOCCNc4cccc5c4C(=O)N(C4CCC(=O)NC4=O)C5=O)nn3)cc2)nc1N (stereo unspecified) | – | – | – | – | – | – | – | – | – | – | – | – | – | – | – | – | – | DC50 [26]: 61 nM
